Results as given in paper PMC8154578, “Sustainable Drug Discovery of Multi-Target-Directed Ligands for Alzheimer’s Disease” (Journal of Medicinal Chemistry, 2021).

Experiments:
[1] = test system: TNF-α, IL-1β, iNOS and COX-2 mRNA in LPS-induced BV-2 cells; assay: Expression of proinflammatory cytokines and enzymes in LPS-induced BV-2 cells (real-time PCR); type: cell-based, murine; conditions: 0.1 μM for 24 h, then 100 ng/mL LPS for 24 h, compared to LPS
[2] = test system: RAW264.7 murine macrophage cell line; set-up: method as in PMID 29890972; conditions: 50 μM; cited from earlier work
[3] = test system: IL-1β release in LPS-activated BV-2 cells; assay: Secretion of IL-1β in activated BV-2 cells (ELISA); type: cell-based, murine; conditions: 0.1 μM for 24 h, then 100 ng/mL LPS for 24 h, compared to LPS-treated cells

SMILES	COX-2 mRNA expression [1]	IL-1β mRNA expression [1]	TNF-α mRNA expression [1]	iNOS mRNA expression [1]	expression of TNF-α, iNOS, COX-2, NF-κB, IL-1β, and IL-6 [2]	release of IL-1β in the culture medium [3]
CCCCCCCCCCCCCCCc1cccc(O)c1C(=O)O [Compound 1a, reference compound]	reduced	reduced	reduced only the expression of IL-1β and COX-2	reduced only the expression of IL-1β and COX-2	significantly reduce	
COC(=O)c1c(CCCCCCCCNc2c3c(nc4ccccc24)CCCC3)cccc1OC [Compound 5, Methyl 2-Methoxy-6-(8-((1,2,3,4-tetrahydroacridin-9-yl)amino)octyl)benzoate]	significantly downregulated	significantly downregulated	not TNF-α	significantly downregulated		significantly decrease
COC(=O)c1c(CCCCCCCCNc2c3c(nc4cc(Cl)ccc24)CCCC3)cccc1OC [Compound 6, Methyl 2-(8-((6-Chloro-1,2,3,4-tetrahydroacridin-9-yl)amino)octyl)-6-methoxybenzoate]	significantly reduce	significantly reduce	significantly reduce	significantly reduce		significantly decrease
